Measurements taken from ChEMBL document CHEMBL1143464, “Trifluoromethyl group as a pharmacophore: effect of replacing a CF3 group on binding and agonist activity of a glucocorticoid receptor ligand” (Bioorg Med Chem Lett, 2005).
pEC50, pIC50: −log10 of the molar value.

Legend:
Progesterone receptor = biological target: T1, Progesterone receptor (Homo sapiens, UniProt P06401); assay: Binding affinity towards progesterone receptor using fluorescence polarization competitive binding assay
T1 sequence (P06401 whole entry): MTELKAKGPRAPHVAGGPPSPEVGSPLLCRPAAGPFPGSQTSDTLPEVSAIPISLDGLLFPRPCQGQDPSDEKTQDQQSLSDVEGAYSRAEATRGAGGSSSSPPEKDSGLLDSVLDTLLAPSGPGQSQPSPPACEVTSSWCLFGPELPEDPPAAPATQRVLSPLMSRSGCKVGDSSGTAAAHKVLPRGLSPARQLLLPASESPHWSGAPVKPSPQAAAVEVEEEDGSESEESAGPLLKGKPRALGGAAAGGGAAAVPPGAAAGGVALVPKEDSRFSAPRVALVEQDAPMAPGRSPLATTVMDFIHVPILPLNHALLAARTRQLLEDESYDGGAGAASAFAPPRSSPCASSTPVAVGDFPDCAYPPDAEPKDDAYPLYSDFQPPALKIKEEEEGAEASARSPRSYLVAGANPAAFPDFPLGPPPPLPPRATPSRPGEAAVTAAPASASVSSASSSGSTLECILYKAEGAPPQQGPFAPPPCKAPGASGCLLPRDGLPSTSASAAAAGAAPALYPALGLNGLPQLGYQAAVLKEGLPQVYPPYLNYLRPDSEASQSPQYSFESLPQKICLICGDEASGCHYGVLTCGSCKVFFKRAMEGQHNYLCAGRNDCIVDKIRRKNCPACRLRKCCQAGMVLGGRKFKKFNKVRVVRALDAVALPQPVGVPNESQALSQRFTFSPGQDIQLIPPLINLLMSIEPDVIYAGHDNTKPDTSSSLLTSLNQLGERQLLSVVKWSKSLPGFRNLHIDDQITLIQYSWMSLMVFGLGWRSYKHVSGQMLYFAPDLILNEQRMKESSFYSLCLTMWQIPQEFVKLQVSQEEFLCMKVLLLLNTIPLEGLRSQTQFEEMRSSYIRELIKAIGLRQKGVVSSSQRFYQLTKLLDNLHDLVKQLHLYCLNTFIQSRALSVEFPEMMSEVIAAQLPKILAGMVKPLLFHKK

Glucocorticoid receptor [1] = biological target: T2, Glucocorticoid receptor (Homo sapiens, UniProt P04150); assay: Binding affinity towards glucocorticoid receptor using fluorescence polarization competitive binding assay
T2 sequence (P04150 whole entry): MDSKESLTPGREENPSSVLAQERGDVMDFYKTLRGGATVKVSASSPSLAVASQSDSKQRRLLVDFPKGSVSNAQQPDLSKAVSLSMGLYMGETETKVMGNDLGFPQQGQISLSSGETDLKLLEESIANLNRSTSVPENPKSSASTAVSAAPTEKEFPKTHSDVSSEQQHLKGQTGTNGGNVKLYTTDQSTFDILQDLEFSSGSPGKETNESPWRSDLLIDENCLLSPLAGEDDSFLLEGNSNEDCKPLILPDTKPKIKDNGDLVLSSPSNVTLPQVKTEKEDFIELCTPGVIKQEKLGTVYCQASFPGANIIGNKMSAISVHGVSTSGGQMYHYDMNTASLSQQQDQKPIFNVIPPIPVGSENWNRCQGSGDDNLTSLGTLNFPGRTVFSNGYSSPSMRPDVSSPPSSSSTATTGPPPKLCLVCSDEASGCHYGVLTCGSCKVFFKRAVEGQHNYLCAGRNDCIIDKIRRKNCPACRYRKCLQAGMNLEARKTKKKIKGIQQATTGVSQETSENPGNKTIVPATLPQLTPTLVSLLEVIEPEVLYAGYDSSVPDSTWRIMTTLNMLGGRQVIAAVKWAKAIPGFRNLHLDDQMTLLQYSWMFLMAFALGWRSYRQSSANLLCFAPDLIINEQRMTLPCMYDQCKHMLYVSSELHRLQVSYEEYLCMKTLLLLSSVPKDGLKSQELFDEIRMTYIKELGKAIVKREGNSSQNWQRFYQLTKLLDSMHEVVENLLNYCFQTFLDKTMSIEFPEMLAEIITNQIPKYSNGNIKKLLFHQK

[2] = biological target: T3, Mineralocorticoid receptor (Homo sapiens, UniProt P08235); assay: Binding affinity towards mineralocorticoid receptor using fluorescence polarization competitive binding assay
T3 sequence (P08235 whole entry): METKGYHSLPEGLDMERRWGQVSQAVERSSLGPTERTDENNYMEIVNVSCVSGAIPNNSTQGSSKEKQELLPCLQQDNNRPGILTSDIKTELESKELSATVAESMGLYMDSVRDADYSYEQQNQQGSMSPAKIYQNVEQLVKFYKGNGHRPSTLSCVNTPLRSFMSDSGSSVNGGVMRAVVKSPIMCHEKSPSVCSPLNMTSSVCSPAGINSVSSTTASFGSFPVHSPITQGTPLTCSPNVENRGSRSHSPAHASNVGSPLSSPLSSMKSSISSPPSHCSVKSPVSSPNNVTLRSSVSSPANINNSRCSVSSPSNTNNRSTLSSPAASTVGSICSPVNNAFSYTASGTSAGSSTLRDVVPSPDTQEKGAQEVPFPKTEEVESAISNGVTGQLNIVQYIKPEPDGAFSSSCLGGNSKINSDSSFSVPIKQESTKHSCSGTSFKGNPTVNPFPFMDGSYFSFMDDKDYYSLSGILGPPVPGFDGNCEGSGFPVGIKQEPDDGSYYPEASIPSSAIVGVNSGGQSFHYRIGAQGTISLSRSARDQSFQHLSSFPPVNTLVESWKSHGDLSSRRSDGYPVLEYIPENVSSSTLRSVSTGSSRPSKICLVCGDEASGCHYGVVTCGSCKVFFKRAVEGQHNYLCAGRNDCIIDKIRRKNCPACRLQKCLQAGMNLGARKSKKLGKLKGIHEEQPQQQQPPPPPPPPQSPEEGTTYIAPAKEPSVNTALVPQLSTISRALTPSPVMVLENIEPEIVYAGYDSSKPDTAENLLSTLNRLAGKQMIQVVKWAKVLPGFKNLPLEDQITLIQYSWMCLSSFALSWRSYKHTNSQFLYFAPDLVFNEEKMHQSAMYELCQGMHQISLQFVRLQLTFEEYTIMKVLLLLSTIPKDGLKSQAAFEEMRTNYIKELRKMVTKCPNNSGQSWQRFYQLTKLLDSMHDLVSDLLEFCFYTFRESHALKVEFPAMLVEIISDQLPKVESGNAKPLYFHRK

Glucocorticoid receptor [3] = biological target: T2, Glucocorticoid receptor; assay: Effective agonist concentration for transcriptional repression of IL-6 production in IL-1 stimulated human foreskin fibroblasts; assay type: functional
Glucocorticoid receptor [4] = biological target: T2, Glucocorticoid receptor; assay: Effective concentration against inhibition of Dexamethasone induced glucocorticoid receptor transactivation of mouse mammary tumor virus luciferase gene in HeLa cells; assay type: cell-based

pIC50 (Progesterone receptor)	pIC50 (Glucocorticoid receptor [1])	pIC50 [2]	pEC50 (Glucocorticoid receptor [3])	pEC50 (Glucocorticoid receptor [4])	SMILES
7.47	7.28				Cc1cccc(CC(O)(CC(C)(C)c2cc(F)ccc2O)C(=O)Nc2ccc3c(c2)COC3=O)c1 (stereo unspecified)
7.29	6.33				Cc1cc(C)cc(CC(O)(CC(C)(C)c2cc(F)ccc2O)C(=O)Nc2ccc3c(c2)COC3=O)c1 (stereo unspecified)
7.80	8.22	7.52	7.35	6.82	CC(C)(CC(O)(C(=O)Nc1ccc2c(c1)COC2=O)C(F)(F)F)c1cc(F)ccc1O (stereo unspecified)
7.38	7.70	6.85		6.89	CC(C)(CC(O)(CC1CCCCC1)C(=O)Nc1ccc2c(c1)COC2=O)c1cc(F)ccc1O (stereo unspecified)
7.40	8.05				Cc1noc(=O)c2ccc(NC(=O)C(O)(CC3CCCCC3)CC(C)(C)c3ccccc3)cc12 (stereo unspecified)
7.07	6.64				COc1ccc(F)cc1C(C)(C)CC(O)(C(=O)Nc1ccc2c(c1)COC2=O)C(F)(F)F (stereo unspecified)
7.07	6.43	7.22		5.63	CC(O)(CC(C)(C)c1ccccc1)C(=O)Nc1ccc2c(c1)COC2=O (stereo unspecified)
7.46	7.22	6.72		6.38	CC(C)(CC(O)(Cc1ccccc1)C(=O)Nc1ccc2c(c1)COC2=O)c1cc(F)ccc1O (stereo unspecified)
7.44	7.10	6.67		6.82	CC(C)(CC(O)(C(=O)Nc1ccc2c(c1)COC2=O)C(F)(F)F)c1ccccc1 (stereo unspecified)
6.48	7.14	6.76		6.12	CC(C)(C)c1ccc(CC(O)(CC(C)(C)c2ccccc2)C(=O)Nc2ccc3c(c2)COC3=O)cc1 (stereo unspecified)
6.68	6.70	6.50		6.21	CC(C)C(O)(CC(C)(C)c1ccccc1)C(=O)Nc1ccc2c(c1)COC2=O (stereo unspecified)
7.66	8.40	7.39	8.00		Cc1noc(=O)c2ccc(NC(=O)C(O)(CC(C)(C)c3cc(F)ccc3O)C(F)(F)F)cc12 (stereo unspecified)
6.74	6.13				CC(C)(CC(O)(Cc1ccc(-c2ccccc2)cc1)C(=O)Nc1ccc2c(c1)COC2=O)c1ccccc1 (stereo unspecified)
7.46	7.28				COc1ccc(F)cc1C(C)(C)CC(O)(Cc1ccccc1)C(=O)Nc1ccc2c(c1)COC2=O (stereo unspecified)
7.32	6.96				CC(C)(CC(O)(Cc1ccc2ccccc2c1)C(=O)Nc1ccc2c(c1)COC2=O)c1ccccc1 (stereo unspecified)
6.40	6.12				CC(C)(CC(O)(Cc1ccccn1)C(=O)Nc1ccc2c(c1)COC2=O)c1ccccc1 (stereo unspecified)
7.36	6.92				CC(C)(CC(O)(Cc1cccc(O)c1)C(=O)Nc1ccc2c(c1)COC2=O)c1ccccc1 (stereo unspecified)
7.33	7.21				CC(C)(CC(O)(Cc1ccccc1O)C(=O)Nc1ccc2c(c1)COC2=O)c1ccccc1 (stereo unspecified)
7.49	8.10	6.98		6.89	Cc1noc(=O)c2ccc(NC(=O)C(O)(Cc3ccccc3)CC(C)(C)c3cc(F)ccc3O)cc12 (stereo unspecified)
< 5.70	< 5.70				CC(C)(CC(O)C(=O)Nc1ccc2c(c1)COC2=O)c1ccccc1 (stereo unspecified)
7.44	7.32				Cc1ccccc1CC(O)(CC(C)(C)c1cc(F)ccc1O)C(=O)Nc1ccc2c(c1)COC2=O (stereo unspecified)
5.70	< 5.70				CC(C)(CC(Cc1ccccc1)C(=O)Nc1ccc2c(c1)COC2=O)c1ccccc1 (stereo unspecified)
6.80	< 5.70				CC(C)(CC(O)(Cc1cc(O)cc(O)c1)C(=O)Nc1ccc2c(c1)COC2=O)c1ccccc1 (stereo unspecified)
7.46	8.05				CC(C)(CC(O)(CC1CCCCC1)C(=O)Nc1ccc2c(c1)COC2=O)c1ccccc1 (single isomer, unassigned)
6.68	6.49				CC(C)(CC(O)(CC1CCCCC1)C(=O)Nc1ccc2c(c1)COC2=O)c1ccccc1 (stereo in doubt)
7.72	8.05	6.77		6.85	CC(C)(CC(O)(CC1CCCCC1)C(=O)Nc1ccc2c(c1)COC2=O)c1ccccc1 (stereo in doubt; 6)

SMILES	pIC50 (Progesterone receptor)	pIC50 (Glucocorticoid receptor [1])	pIC50 [2]	pEC50 (Glucocorticoid receptor [3])	pEC50 (Glucocorticoid receptor [4])
Cc1noc(=O)c2ccc(NC(=O)C(O)(CC3CCCCC3)CC(C)(C)c3cc(F)ccc3O)cc12 (stereo unspecified)	7.46	8.15	6.98		6.92
COc1ccc(F)cc1C(C)(C)CC(O)(CNc1ccc2c(c1)COC2=O)Cc1ccccc1 (stereo unspecified)	7.10	7.09	6.71		6.21
CC(C)(CC(O)(Cc1ccccc1)C(=O)Nc1ccc2c(c1)COC2=O)c1ccccc1 (stereo unspecified)	7.52	7.89	6.80		6.69
Cc1noc(=O)c2ccc(NC(=O)C(O)(Cc3ccccc3)CC(C)(C)c3ccccc3)cc12 (stereo unspecified)	7.52	8.15			
CC(C)(CC(O)(C(=O)Nc1ccc2c(c1)COC2=O)c1ccccc1)c1ccccc1 (stereo unspecified)	6.62	6.34			
CC(C)(CC(O)(CCc1ccccc1)C(=O)Nc1ccc2c(c1)COC2=O)c1ccccc1 (stereo unspecified)	7.23	7.24			
